Values quoted from earlier work in patent US20160067252A1, “TRANSDERMAL DELIVERY OF SILDENAFIL AND OTHER PHOSPHODIESTERASE TYPE 5 INHIBITORS” (STRATEGIC SCIENCE & TECHNOLOGIES, LLC, priority 2013, published 2016).

Row | SMILES | pKa
1 | CN1CC(=O)N2[C@H](c3ccc4c(c3)OCO4)c3[nH]c4ccccc4c3C[C@@H]2C1=O [tadalafil] | 18
2 | CCCOc1ccc(S(=O)(=O)NCCC2CCCN2C)cc1-c1nc2c(CCC)nn(C)c2c(=O)[nH]1 (stereo not drawn) [udenafil] | 10.53
3 | CCCOc1ccc(S(=O)(=O)N2CCN(CCO)CC2)cc1-c1nc2c(CCC)cn(CC)c2c(=O)[nH]1 [mirodenafil] | 6.0
